Our source for the mutagenic call values is PubChem BioAssay AID1259407 (Chemical Carcinogenesis Research Information System (CCRIS), 2018).

SMILES strings stand for the structures. The source made the active and inactive calls. The rule behind the calls is not given here.

This data set has as its system CCRIS mutagenicity, Ames/micronucleus/aberration tests. Description: CCRIS mutagenicity studies.
[1] abbreviates: Test System: AMES SALMONELLA TYPHIMURIUM, Strain/Indicator: TA98, Metabolic Activation: NONE, Method: STANDARD PLATE.
The mark [2] stands for this setting: Test System: AMES SALMONELLA TYPHIMURIUM, Strain/Indicator: TA98, Metabolic Activation: RAT, LIVER, S-9, AROCLOR 1254, Method: STANDARD PLATE.
Setting [3] is: Test System: AMES SALMONELLA TYPHIMURIUM, Strain/Indicator: TA100, Metabolic Activation: NONE, Method: STANDARD PLATE.

Turning to `O=C(c1ccccc1)[C@H]1O[C@H]1c1ccc(F)cc1`, the mutagenic call was “inactive; negative” (Test System: AMES SALMONELLA TYPHIMURIUM, Strain/Indicator: TA98, Metabolic Activation: NONE, Method: PREINCUBATION (PHOSPHATE-BUFFERED KCL OR SOLUTE-FREE WATER MEDIA)); “inactive; negative” under setting [1]; “inactive; negative” under setting [2]; “inactive; negative” (Test System: AMES SALMONELLA TYPHIMURIUM, Strain/Indicator: TA100, Metabolic Activation: NONE, Method: PREINCUBATION (PHOSPHATE-BUFFERED KCL OR SOLUTE-FREE WATER MEDIA)); “inactive; negative” under setting [3]; “inactive; negative” (Test System: AMES SALMONELLA TYPHIMURIUM, Strain/Indicator: TA100, Metabolic Activation: RAT, LIVER, S-9, AROCLOR 1254, Method: STANDARD PLATE). Also, the mutagenic call is “inactive; negative” (Test System: AMES SALMONELLA TYPHIMURIUM, Strain/Indicator: TA104, Metabolic Activation: NONE, Method: PREINCUBATION (PHOSPHATE-BUFFERED KCL OR SOLUTE-FREE WATER MEDIA)) and “inactive; negative” (Test System: CHINESE HAMSTER V-79, Strain/Indicator: V-79 (HPRT)/6-THIOGUANINE, Metabolic Activation: NONE).

For the molecule `CS(=N)(=O)CCC(N)C(=O)O` (configuration not stated), the mutagenic call (Test System: AMES SALMONELLA TYPHIMURIUM, Strain/Indicator: TA102, Metabolic Activation: NONE, Method: STANDARD PLATE) is “inactive; negative” and the mutagenic call (Test System: AMES SALMONELLA TYPHIMURIUM, Strain/Indicator: TA102, Metabolic Activation: RAT, LIVER, S-9, AROCLOR 1254, Method: STANDARD PLATE) was “inactive; negative”.

Consider `C/C(Cl)=C/C=O`, for which the mutagenic call was “active; positive” (Test System: AMES SALMONELLA TYPHIMURIUM, Strain/Indicator: D3052, Metabolic Activation: NONE, Method: PREINCUBATION, LIQUID INCUBATION); “inactive; negative” (Test System: AMES SALMONELLA TYPHIMURIUM, Strain/Indicator: TA98, Metabolic Activation: NONE, Method: PREINCUBATION, LIQUID INCUBATION); “inactive; negative” (Test System: AMES SALMONELLA TYPHIMURIUM, Strain/Indicator: TA100, Metabolic Activation: NONE, Method: PREINCUBATION, LIQUID INCUBATION); “inactive; negative” (Test System: AMES SALMONELLA TYPHIMURIUM, Strain/Indicator: TA1535, Metabolic Activation: NONE, Method: PREINCUBATION, LIQUID INCUBATION); “inactive; negative” (Test System: AMES SALMONELLA TYPHIMURIUM, Strain/Indicator: TA1538, Metabolic Activation: NONE, Method: PREINCUBATION, LIQUID INCUBATION).

Turning to `CCOC(=O)CCBr`, the mutagenic call was “active; positive (structural changes)” (End Point: IN VITRO CHROMOSOMAL ABERRATIONS, Test System: CHL CELLS, Metabolic Activation: NONE) and “active; positive (structural changes)” (End Point: IN VITRO CHROMOSOMAL ABERRATIONS, Test System: CHL CELLS, Metabolic Activation: RAT, LIVER, S-9, SODIUM PHENOBARBITAL AND 5,6-BENZOFLAVONE).

For the molecule `Cc1cccc(OCC(O)CNC(C)(C)C)c1C` (configuration not stated), the mutagenic call under setting [1] was “inactive; negative”; the mutagenic call (Test System: AMES SALMONELLA TYPHIMURIUM, Strain/Indicator: TA98, Metabolic Activation: S-9, Method: STANDARD PLATE) was “inactive; negative”; the mutagenic call under setting [3] is “inactive; negative”; the mutagenic call (Test System: AMES SALMONELLA TYPHIMURIUM, Strain/Indicator: TA100, Metabolic Activation: S-9, Method: STANDARD PLATE) is “inactive; negative”; the mutagenic call (Test System: AMES SALMONELLA TYPHIMURIUM, Strain/Indicator: TA1535, Metabolic Activation: NONE, Method: STANDARD PLATE) was “inactive; negative”; the mutagenic call (Test System: AMES SALMONELLA TYPHIMURIUM, Strain/Indicator: TA1535, Metabolic Activation: S-9, Method: STANDARD PLATE) was “inactive; negative”. Moreover, the mutagenic call runs as follows: (Test System: AMES SALMONELLA TYPHIMURIUM, Strain/Indicator: TA1537, Metabolic Activation: NONE, Method: STANDARD PLATE) “inactive; negative”; (Test System: AMES SALMONELLA TYPHIMURIUM, Strain/Indicator: TA1537, Metabolic Activation: S-9, Method: STANDARD PLATE) “inactive; negative”; (Test System: AMES SALMONELLA TYPHIMURIUM, Strain/Indicator: TA1538, Metabolic Activation: NONE, Method: STANDARD PLATE) “inactive; negative”; (Test System: AMES SALMONELLA TYPHIMURIUM, Strain/Indicator: TA1538, Metabolic Activation: S-9, Method: STANDARD PLATE) “inactive; negative”; (Test System: E. COLI WP2, Strain/Indicator: WP2 UVRA, Metabolic Activation: NONE, Method: STANDARD PLATE) “inactive; negative”; (Test System: E. COLI WP2, Strain/Indicator: WP2 UVRA, Metabolic Activation: S-9, Method: STANDARD PLATE) “inactive; negative”.

In the case of `CCCCOc1cc(OC)ccc1C(=O)NOC(C)=O`, the mutagenic call runs as follows: under setting [3], “active; positive”; (Test System: AMES SALMONELLA TYPHIMURIUM, Strain/Indicator: TA100, Metabolic Activation: RAT, S-9, AROCLOR, Method: STANDARD PLATE) “active; positive”.

In the case of `NCCCNCCCCNCCCN`, the mutagenic call is “inactive; negative” (Test System: E. COLI, Strain/Indicator: WP2 UVRA (PKM101), Metabolic Activation: NONE, Method: STANDARD PLATE) and “inactive; negative” (Test System: E. COLI, Strain/Indicator: WP2 UVRA/OXYR (PKM101), Metabolic Activation: NONE, Method: STANDARD PLATE).

As to `COc1ccc(C(c2ccc(OC)cc2)C(Cl)(Cl)Cl)cc1`, the mutagenic call is “inactive; negative” (Test System: CHINESE HAMSTER OVARY, Strain/Indicator: CHO-K1-BH4 (HGPRT)/6-THIOGUANINE, Metabolic Activation: NONE, Method: SUSPENSION/PLATE); “inactive; negative” (Test System: CHINESE HAMSTER OVARY, Strain/Indicator: CHO-K1-BH4 (HGPRT)/6-THIOGUANINE, Metabolic Activation: S-9, Method: SUSPENSION/PLATE); “inactive; negative” (Test System: E. COLI, Strain/Indicator: WP2 UVRA, Metabolic Activation: HAMSTER, LIVER, S-9, AROCLOR 1254, Method: STANDARD PLATE); “inactive; negative” (Test System: E. COLI, Strain/Indicator: WP2 UVRA, Metabolic Activation: HAMSTER, LIVER, S-9, Method: STANDARD PLATE); “inactive; negative” (Test System: E. COLI, Strain/Indicator: WP2 UVRA, Metabolic Activation: MOUSE, LIVER, S-9, AROCLOR 1254, Method: STANDARD PLATE); “inactive; negative” (Test System: E. COLI, Strain/Indicator: WP2 UVRA, Metabolic Activation: MOUSE, LIVER, S-9, Method: STANDARD PLATE). In addition, the mutagenic call (Test System: E. COLI, Strain/Indicator: WP2 UVRA, Metabolic Activation: NONE, Method: STANDARD PLATE) was “inactive; negative”; the mutagenic call (Test System: E. COLI, Strain/Indicator: WP2 UVRA, Metabolic Activation: RAT, LIVER, S-9, AROCLOR 1254, Method: STANDARD PLATE) is “inactive; negative”; the mutagenic call (Test System: E. COLI, Strain/Indicator: WP2 UVRA, Metabolic Activation: RAT, LIVER, S-9, Method: STANDARD PLATE) is “inactive; negative”; the mutagenic call (Test System: MOUSE LYMPHOMA, Strain/Indicator: L5178Y (TK+/TK-), Metabolic Activation: NONE, Method: SUSPENSION/PLATE) is “inactive; negative”; the mutagenic call (Test System: MOUSE LYMPHOMA, Strain/Indicator: L5178Y (TK+/TK-), Metabolic Activation: RAT, LIVER, S-9, AROCLOR 1254, Method: SUSPENSION/PLATE) is “active; positive”; the mutagenic call (Test System: MOUSE LYMPHOMA, Strain/Indicator: L5178Y (TK+/TK-), Metabolic Activation: RAT, LIVER, S-9, Method: SUSPENSION/PLATE) was “active; positive”. In addition, the mutagenic call (Test System: MOUSE LYMPHOMA, Strain/Indicator: L5178Y (TK+/TK-), Metabolic Activation: S-9, Method: SUSPENSION/PLATE) is “active; positive”.

As to `Cc1nc2c(C)cc3c(nc(N)n3C)c2nc1C`, under setting [2], the mutagenic call is “active; positive”.
